A short description of data set [1]: Metabolic stability in mouse liver microsomes at 0.5 uM measured after 15 to 120 mins in presence of NADPH by LC-MS/MS analysis. It counts as ADME, Microsome. The conditions noted are these: time 15-120 min. (Microsomes from liver hold many membrane-bound enzymes, among them those of drug oxidation.)
Data set [2] in a line: Metabolic stability in mouse liver microsomes at 0.5 uM measured after 15 to 120 mins in absence of NADPH by LC-MS/MS analysis. It counts as ADME, Microsome. Conditions: time 15-120 min.
Data set [3] concerns Mycobacterium tuberculosis. It counts as functional, H37Rv. The conditions noted are these: dose 100 mg/kg; route po; time 3-30 day.
The subject of data set [4] is Mycolicibacterium smegmatis. The experiment in a line: Antimycobacterial activity against Mycobacterium smegmatis harboring MsmgdeltammpL3/pMVGHI-mmpL3tb mutant assessed as reduction in bacterial growth measured after 16 hrs […]. Format: functional.
The subject of data set [5] is Mycolicibacterium smegmatis. The data set can be described thus: Antimycobacterial activity against Mycobacterium smegmatis harboring MsmgdeltammpL3/pMVGHI-mmpL3tb G253E mutant assessed as reduction in bacterial growth measured after 16 hrs […]. Format: functional.
Data set [6] deals with Mycobacterium tuberculosis. The data set can be described thus: Antimycobacterial activity against Mycobacterium tuberculosis mc2 6206 assessed as decrease in trehalose dimycolate measured after 16 hrs using [14C]acetate by TLC analysis. It counts as functional, organism-based. Conditions: DDE = dose-dependent effect.
For data set [7], the system named is Mycobacterium tuberculosis. The data set can be described thus: Antimycobacterial activity against Mycobacterium tuberculosis mc2 6206 assessed as decrease in mycolic acid transfer to cell wall arabinogalactan measured after 16 hrs using [14C]acetate by TLC analysis. Format: functional, organism-based. The conditions noted are these: dose 0.0625-1 µg/ml, DDE = dose-dependent effect.

In data set [8] the target is Voltage-gated inwardly rectifying potassium channel KCNH2 (Homo sapiens, UniProt Q12809).
Voltage-gated inwardly rectifying potassium channel KCNH2, sequence (Q12809 whole entry): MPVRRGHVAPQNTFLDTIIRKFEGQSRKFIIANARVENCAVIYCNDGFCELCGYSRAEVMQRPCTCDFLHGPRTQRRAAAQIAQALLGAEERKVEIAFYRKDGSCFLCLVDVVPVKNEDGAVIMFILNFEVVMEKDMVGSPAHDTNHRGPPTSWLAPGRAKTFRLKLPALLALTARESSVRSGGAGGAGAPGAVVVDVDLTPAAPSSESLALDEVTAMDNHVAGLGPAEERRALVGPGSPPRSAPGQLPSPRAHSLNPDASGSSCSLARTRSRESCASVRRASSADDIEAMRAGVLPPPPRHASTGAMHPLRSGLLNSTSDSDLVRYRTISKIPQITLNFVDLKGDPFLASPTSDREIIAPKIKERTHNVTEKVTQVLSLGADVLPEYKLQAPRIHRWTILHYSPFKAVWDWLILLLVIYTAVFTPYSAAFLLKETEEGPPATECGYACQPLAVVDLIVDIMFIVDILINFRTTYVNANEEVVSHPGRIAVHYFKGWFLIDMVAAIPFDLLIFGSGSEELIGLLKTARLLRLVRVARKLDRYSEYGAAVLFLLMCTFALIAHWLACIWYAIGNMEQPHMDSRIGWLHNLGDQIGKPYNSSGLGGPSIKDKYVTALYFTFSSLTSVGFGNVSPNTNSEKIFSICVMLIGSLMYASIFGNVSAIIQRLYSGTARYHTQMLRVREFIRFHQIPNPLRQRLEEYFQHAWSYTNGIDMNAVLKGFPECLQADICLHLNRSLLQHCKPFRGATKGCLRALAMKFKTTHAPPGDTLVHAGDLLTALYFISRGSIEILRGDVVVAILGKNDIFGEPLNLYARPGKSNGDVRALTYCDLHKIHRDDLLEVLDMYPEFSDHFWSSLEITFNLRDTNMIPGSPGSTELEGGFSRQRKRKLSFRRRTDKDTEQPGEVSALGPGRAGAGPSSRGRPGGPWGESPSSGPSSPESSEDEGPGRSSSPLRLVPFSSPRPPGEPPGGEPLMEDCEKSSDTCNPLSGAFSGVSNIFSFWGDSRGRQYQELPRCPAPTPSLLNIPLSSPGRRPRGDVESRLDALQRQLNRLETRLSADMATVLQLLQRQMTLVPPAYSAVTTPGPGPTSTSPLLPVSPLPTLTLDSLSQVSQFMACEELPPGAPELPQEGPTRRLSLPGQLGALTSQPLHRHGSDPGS
Description: Inhibition of hERG potassium channel in HEK293 cells at 0.3 to 30 uM by whole-cell patch clamp assay
Data set [9] relates to Mycobacterium tuberculosis. The data set can be described thus: microbe, parasite or virus in culture. The conditions noted are these: H37Rv mc2 6206, 16 h.
Description: Antimycobacterial activity against Mycobacterium tuberculosis H37Rv mc2 6206 assessed as reduction in bacterial growth measured after 16 hrs by TLC analysis
Data set [10] has as its system Mycobacterium tuberculosis. The data set can be described thus: microbe, parasite or virus in culture. Conditions: H37Rv, 168 h.
Description: Antimycobacterial activity against Mycobacterium tuberculosis H37Rv assessed as inhibition of bacterial growth measured after 7 days by microplate alamar blue assay

SMILES strings stand for the structures. ≈ marks a conversion by molar mass, not a printed value.

What is called IC50 is the concentration that gives 50% inhibition. The low end stands for greater potency, the high end for weaker potency. Take `O=C(NC1C2CC3CC(C2)CC1C3)c1cc(-c2ccc(F)nc2F)c[nH]1` (stereo not drawn): the Stability in data set [1] is 43.3%; in data set [2], “Stable”. Besides, in [3], the Activity worked out at 2 log10CFU. Besides, the MIC90 in data set [4] was 0.5 µg/mL (≈ 1.4 µM); in data set [9], 0.125 µg/mL (≈ 0.35 µM); in data set [10] it was under 0.016 µg/mL. Besides, the “MIC=>90” value in data set [5] was found to be 4 µg/mL (≈ 11.2 µM). The inhibition result in [6] and in [7] was “Dde” each time. This compound also had an IC50 in [8] of over 30 µM.
With `O=C(NC1CCCCCCC1)c1cc(-c2ccc(F)nc2F)c[nH]1`, the figures for the Stability in [1] and in data set [2] were 25.9% and “Stable”, respectively. Also, the MIC90 was 0.5 µg/mL (≈ 1.5 µM) in [4], 0.25 µg/mL (≈ 0.75 µM) in [9] and 0.03 µg/mL (≈ 0.09 µM) in data set [10]. In addition, the “MIC=>90” value in data set [5] is 4 µg/mL (≈ 12 µM). Further, the inhibition entry in [6] and in data set [7] was “Dde” in each case.
Take `O=C(NC12CC3CC(CC(C3)C1)C2)c1cc(-c2ccc(F)cc2F)c[nH]1`: the values for the Stability in data set [1] and in [2] were 57.4% and “Stable”, respectively. This compound gave an Activity in [3] of 1.5 log10CFU. Besides, the MIC90 is 0.25 µg/mL (≈ 0.701 µM) in data set [4], 0.0625 µg/mL (≈ 0.175 µM) in data set [9] and under 0.016 µg/mL in [10]. Moreover, the “MIC=>90” value in [5] turned out to be 2 µg/mL (≈ 5.61 µM). Besides, the inhibition entry in data set [6] and in data set [7] was “Dde” throughout. In data set [8], this compound returned an IC50 of over 30 µM.
For `O=C(NC12CC3CC(CC(C3)C1)C2)c1cc(-c2ccc(F)nc2F)c[nH]1`, the Stability was 47.6% in [1] and “Stable” in data set [2]. Further, in data set [3], the Activity is 1 log10CFU. The same compound had an IC50 in data set [8] of over 30 µM. Besides, in data set [10], the MIC90 was under 0.016 µg/mL.

(Values after ChEMBL document CHEMBL5126604, “Design, Synthesis, and Biological Evaluation of Pyrrole-2-carboxamide Derivatives as Mycobacterial Membrane Protein Large 3 Inhibitors for Treating Drug-Resistant Tuberculosis” (J Med Chem, 2022).)
